Measured values: patent publication US4537717A
In brackets after ≈: the same amount, converted by molar mass. Several values for one entry are separate records, joined by “and”; a condition that tells them apart may be missing. Equal entries are not always repeated.

Legend:
[1] = tested on: Staphylococcus aureus ATCC 6738P; assay: agar-plate disc-diffusion test; type: cell-based; conditions: suspended in water at 1 mg/ml; 7 mm disc; 24-48 hours at 25-37° C.
[2] = tested on: Micrococcus luteus ATCC 9341; assay: agar-plate disc-diffusion test; type: cell-based; conditions: suspended in water at 1 mg/ml; 7 mm disc; 24-48 hours at 25-37° C.
[3] = tested on: Staphylococcus epidermidis EPI1; type: cell-based; conditions: agar dilution; 2, 5, 17, 22 median of three tests; paired values two experiments
[4] = tested on: Staphylococcus epidermidis EPI2; type: cell-based; conditions: agar dilution; 2, 5, 17, 22 median of three tests; paired values two experiments
[5] = tested on: Streptococcus pyogenes C203; type: cell-based; conditions: agar dilution; 2, 5, 17, 22 median of three tests; paired values two experiments
[6] = tested on: Streptococcus pneumoniae Park I; type: cell-based; conditions: agar dilution; 2, 5, 17, 22 median of three tests; paired values two experiments
[7] = tested on: Streptococcus pneumoniae Group D X66; type: cell-based; conditions: agar dilution; 2, 5, 17, 22 median of three tests; paired values two experiments
[8] = tested on: Streptococcus Group 9960; type: cell-based, Streptococcus pneumoniae; conditions: agar dilution; 2, 5, 17, 22 median of three tests; paired values two experiments
[9] = tested on: Staphylococcus aureus; assay: in vivo activity against experimental bacterial infection (ED50); conditions: mice; two doses subcutaneously; dose protecting fifty percent of test animals
[10] = tested on: Streptococcus pyogenes; assay: as above; conditions: mice, dose protecting fifty percent of test animals; for ED50 Streptococcus pyogenes Oral: two doses orally; for ED50 Streptococcus pyogenes Subcutaneous: two doses subcutaneously
[11] = toxicity test (LD50); conditions: mouse, in vivo, iv, mice; administered intravenously
[12] = tested on: Bacillus subtilis ATCC 6633; assay: agar-plate disc-diffusion test; conditions: 7 mm disc, 24-48 hours at 25-37° C.; for Size of Zone of Inhibition (mm) B. subtilis ATCC 6633, grown on minimal nutrient agar: 1 mg/ml; for Size of Zone of Inhibition (mm) Bacillus subtilis ATCC 6633: suspended in water at 1 mg/ml
Method: ^a Compounds were suspended in water at a concentration of 1 mg/ml; a
7 mm disc was dipped into the suspension and then placed on the agar
surface; incubation: 24-48 hours at 25-37° C.
^b Grown on minimal nutrient agar

[13] = tested on: Staphylococcus aureus X1.1; type: cell-based; conditions: agar dilution; 2, 5, 17, 22 median of three tests; paired values two experiments
[14] = tested on: Staphylococcus aureus V41; type: cell-based; conditions: penicillin-resistant strain; agar dilution; 2, 5, 17, 22 median of three tests; paired values two experiments
[15] = tested on: Staphylococcus aureus X400; type: cell-based; conditions: methicillin-resistant strain; agar dilution; 2, 5, 17, 22 median of three tests; paired values two experiments

SMILES	Size of Zone of Inhibition (mm) Staphylococcus aureus ATCC 6738P [1] [mm]	Size of Zone of Inhibition (mm) Micrococcus luteus ATCC 9341 [2] [mm]	MIC Staphylococcus epidermidis EPI1 [3] [µg/mL]	MIC Staphylococcus epidermidis EPI2 [4] [µg/mL]	MIC Streptococcus pyogenes C203 [5]	MIC Streptococcus pneumoniae Park I [6] [µg/mL]	MIC Streptococcus pneumoniae Group D X66 [7] [µg/mL]	MIC Streptococcus pneumoniae Group 9960 [8] [µg/mL]	ED50 Staphylococcus aureus Subcutaneous [9] [mg/kg × 2]	ED50 Streptococcus pyogenes Oral [10]	ED50 Streptococcus pyogenes Subcutaneous [10] [mg/kg × 2]	LD50 [11] [mg/kg]	Size of Zone of Inhibition (mm) B. subtilis ATCC 6633, grown on minimal nutrient agar [12] [mm]	Size of Zone of Inhibition (mm) Bacillus subtilis ATCC 6633 [12] [mm]	MIC Staphylococcus aureus X1.1 [13] [µg/mL]	MIC Staphylococcus aureus V41 [14] [µg/mL]	MIC Staphylococcus aureus X400 [15] [µg/mL]
CCCCCCCCCCCC(=O)N[C@@H](Cc1c[nH]c2ccccc12)C(=O)N[C@@H](CC(N)=O)C(=O)N[C@@H](CC(=O)O)C(=O)N[C@@H]1C(=O)NCC(=O)N[C@@H](CCCN)C(=O)N[C@@H](CC(=O)O)C(=O)N[C@H](C)C(=O)N[C@@H](CC(=O)O)C(=O)NCC(=O)N[C@H](CO)C(=O)N[C@@H]([C@H](C)CC(=O)O)C(=O)N[C@@H](CC(=O)c2ccccc2N)C(=O)O[C@@H]1C [Compound 6]	25	19	1 (≈ 0.607 µM)	1 (≈ 0.607 µM)	0.125 µg/mL and 0.25 µg/mL	0.25 (≈ 0.152 µM)	2 (≈ 1.21 µM)	0.5 (≈ 0.303 µM)	0.44	69 mg/kg × 2	0.05	144	32	20	–	–	–
CCCCCCC(=O)N[C@@H](Cc1c[nH]c2ccccc12)C(=O)N[C@@H](CC(N)=O)C(=O)N[C@@H](CC(=O)O)C(=O)N[C@@H]1C(=O)NCC(=O)N[C@@H](CCCN)C(=O)N[C@@H](CC(=O)O)C(=O)N[C@H](C)C(=O)N[C@@H](CC(=O)O)C(=O)NCC(=O)N[C@H](CO)C(=O)N[C@@H]([C@H](C)CC(=O)O)C(=O)N[C@@H](CC(=O)c2ccccc2N)C(=O)O[C@@H]1C [Compound 1]	17	21	16 (≈ 10.1 µM)	8 (≈ 5.07 µM)	2 µg/mL (≈ 1.27 µM)	8 (≈ 5.07 µM)	128 (≈ 81.1 µM)	128 (≈ 81.1 µM)	2.65	–	–	> 600	16	15	8 (≈ 5.07 µM)	8 (≈ 5.07 µM)	8 (≈ 5.07 µM)
CCC(C)CCCCCCC(=O)N[C@@H](Cc1c[nH]c2ccccc12)C(=O)N[C@@H](CC(N)=O)C(=O)N[C@@H](CC(=O)O)C(=O)N[C@@H]1C(=O)NCC(=O)N[C@@H](CCCNC(C)=O)C(=O)N[C@@H](CC(=O)O)C(=O)N[C@H](C)C(=O)N[C@@H](CC(=O)O)C(=O)NCC(=O)N[C@H](CO)C(=O)N[C@@H]([C@H](C)CC(=O)O)C(=O)N[C@@H](CC(=O)c2ccccc2N)C(=O)O[C@@H]1C (some centres unmarked) [Compound 14]	21	20	–	–	–	–	–	–	1.3	163 mg/kg × 2 and > 200 mg/kg × 2	–	> 600	25	18	–	–	–
CCCCCCCCCCCCN[C@@H](Cc1c[nH]c2ccccc12)C(=O)N[C@@H](CC(N)=O)C(=O)N[C@@H](CC(=O)O)C(=O)N[C@@H]1C(=O)NCC(=O)N[C@@H](CCCN)C(=O)N[C@@H](CC(=O)O)C(=O)N[C@H](C)C(=O)N[C@@H](CC(=O)O)C(=O)NCC(=O)N[C@H](CO)C(=O)N[C@@H]([C@H](C)CC(=O)O)C(=O)N[C@@H](CC(=O)c2ccccc2N)C(=O)O[C@@H]1C [Compound 22, NTrp -(n-dodecyl)-A-21978C nucleus]	–	–	1 (≈ 0.612 µM)	1 (≈ 0.612 µM)	0.5 µg/mL (≈ 0.306 µM)	1 (≈ 0.612 µM)	4 (≈ 2.45 µM)	1 (≈ 0.612 µM)	1.25	> 200 mg/kg × 2	–	> 300	–	–	0.5 (≈ 0.306 µM)	1 (≈ 0.612 µM)	1 (≈ 0.612 µM)
CCC(C)CCCCCCC(=O)N[C@@H](Cc1c[nH]c2ccccc12)C(=O)N[C@@H](CC(N)=O)C(=O)N[C@@H](CC(=O)O)C(=O)N[C@@H]1C(=O)NCC(=O)N[C@@H](CCCNC(=O)CCC(=O)O)C(=O)N[C@@H](CC(=O)O)C(=O)N[C@H](C)C(=O)N[C@@H](CC(=O)O)C(=O)NCC(=O)N[C@H](CO)C(=O)N[C@@H]([C@H](C)CC(=O)O)C(=O)N[C@@H](CC(=O)c2ccccc2N)C(=O)O[C@@H]1C (some centres unmarked) [Compound 15]	21	19	–	–	–	–	–	–	6.27	> 200 mg/kg × 2	1.4	450	25	18	–	–	–
CCCCCCCCC(=O)N[C@@H](Cc1c[nH]c2ccccc12)C(=O)N[C@@H](CC(N)=O)C(=O)N[C@@H](CC(=O)O)C(=O)N[C@@H]1C(=O)NCC(=O)N[C@@H](CCCN)C(=O)N[C@@H](CC(=O)O)C(=O)N[C@H](C)C(=O)N[C@@H](CC(=O)O)C(=O)NCC(=O)N[C@H](CO)C(=O)N[C@@H]([C@H](C)CC(=O)O)C(=O)N[C@@H](CC(=O)c2ccccc2N)C(=O)O[C@@H]1C [Compound 3]	20	18	4 (≈ 2.49 µM)	2 (≈ 1.24 µM)	0.25 µg/mL (≈ 0.156 µM)	2 (≈ 1.24 µM)	32 (≈ 19.9 µM)	8 (≈ 4.98 µM)	0.5	–	–	> 600	27	16	2 (≈ 1.24 µM)	2 (≈ 1.24 µM)	4 (≈ 2.49 µM)
CCCCCCCC(=O)N[C@@H](Cc1c[nH]c2ccccc12)C(=O)N[C@@H](CC(N)=O)C(=O)N[C@@H](CC(=O)O)C(=O)N[C@@H]1C(=O)NCC(=O)N[C@@H](CCCN)C(=O)N[C@@H](CC(=O)O)C(=O)N[C@H](C)C(=O)N[C@@H](CC(=O)O)C(=O)NCC(=O)N[C@H](CO)C(=O)N[C@@H]([C@H](C)CC(=O)O)C(=O)N[C@@H](CC(=O)c2ccccc2N)C(=O)O[C@@H]1C [Compound 2]	23	23	8 (≈ 5.02 µM)	4 (≈ 2.51 µM)	1 µg/mL (≈ 0.628 µM)	8 (≈ 5.02 µM)	64 (≈ 40.2 µM)	16 (≈ 10 µM)	–	> 200 mg/kg × 2	–	> 600	20	18	4 (≈ 2.51 µM)	4 (≈ 2.51 µM)	8 (≈ 5.02 µM)
